Laboratory results: patent US4693977A, “Enzyme immobilization for producing cephalosporin antibiotics” (Queen's University at Kingston, priority 1986, dated 1987)
Several values for one entry are separate records, joined by “and”; a condition that tells them apart may be missing. Equal entries are not always repeated.

What was measured:
[1] = target: T1, cyclase, epimerase and ring expansion enzyme from a cell-free extract of S. clavuligerus (Streptomyces clavuligerus, UniProt P10621); assay: Cyclization / ring expansion of peptides with enzymes of S. clavuligerus cell-free extract (SPCFX); format: biochemical
T1 construct: from a cell-free extract of S. clavuligerus; endogenous in cells; host or cells: Streptomyces clavuligerus (cell-free extract / salt-precipitated cell-free extract)
T1 sequence (P10621 1-329): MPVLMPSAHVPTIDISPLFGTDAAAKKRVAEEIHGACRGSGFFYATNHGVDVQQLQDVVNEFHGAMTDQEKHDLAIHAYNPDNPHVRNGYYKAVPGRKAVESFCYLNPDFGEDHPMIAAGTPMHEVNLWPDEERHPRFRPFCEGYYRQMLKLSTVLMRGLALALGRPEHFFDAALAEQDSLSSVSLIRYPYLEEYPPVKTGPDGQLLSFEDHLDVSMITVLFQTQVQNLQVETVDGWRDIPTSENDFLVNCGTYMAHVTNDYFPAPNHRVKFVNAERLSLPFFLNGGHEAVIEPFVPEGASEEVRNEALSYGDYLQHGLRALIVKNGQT
Experimental: (§1) Cyclization activity of enzyme preparations was measured in reaction mixtures containing: bis-δ-(L-α-amino-adipyl-L-cysteinyl-D-valine) (ACV)2 0.306 mM, […] 4 mM, Na ascorbate 2.8 mM, FeSO4 45 μM, tris-HCl buffer 0.05M, pH 7.0, enzyme preparation 0.03-0.3 ml, final volume 0.4 ml. Reaction mixtures were incubated at 20° C. for up to 4 hours and stopped by cooling on ice or by the addition of 0.4 ml methanol.
(§2) Ring expansion activity was followed using the cyclization assay system described above but supplemented with ATP 0.5 mM, α-ketoglutarate 1 mM, KCl 7.5 mM, and MgSO4 7.5 mM. Total volume and incubation conditions were the same as for the cyclization assay.
(§3) To 0.4 ml of reaction mixture were added 0.9 mM of ACV dimer as produced in Example 4, 50.0 mM Tris-HCl pH 7.0 buffer and a mixture of the three enzymes as produced in Example 1 from a cell-free extract of S. clavuligerus, together with 45.0 μM ferrous sulfate and 2.8 mM ascorbic acid as optimized amounts of essential co-factors. DTT was added in excess of the amount required to reduce ACV dimer to ACV monomer. The reaction was continued for approximately 2 hours at 20° C. and then terminated by addition of 0.4 ml methanol to precipitate protein.
(§4) The procedures of Example 7 were repeated using L-aspartyl, L-glutamyl, D-α-aminoadipyl, adipyl, glycyl-L-α-aminoadipyl and N-acetyl-L-α-aminodipyl-containing peptides. […] A prokaryotic system is, therefore, required. Modification of the valinyl moiety, as noted above, has been considered in detail. Substrates modified in the valinyl moiety such as: [drawing 17] where R1 is H, a lower alkyl or functionalized carboxylic group; and R2 is H or a lower alkyl group may be cyclized with carbon-sulfur bond formation with retention of configuration at the beta carbon of the valine analog, leading to isopenicillin N analogs of the type: [drawing 18] Following epimerization to penicillin N analogs of the type: [drawing 19] ring expansion leads to cephalosporin analogs of the type: with transfer of the beta carbon atom attached to C2 of (11) into C2 of the six membered ring.
(§5) Methanol inactivated reaction mixtures (from Examples 7 and 8) were centrifuged at 12,000×g for 5 min to remove precipitated protein before analysis. Reaction mixtures from Example 9 were examined directly. The chromatographic equipment used was: M-6000A pump, UK-6 injector, M-480 variable wavelength director, M-420 data module and Bondapak-C18 column (Rad Pak A in a Z module) as stationary phase. All equipment was from Waters Scientific Co., Mississauga, Ontario. The mobile phase consisted of methanol/0.05 M potassium phosphate buffer, pH 4.0 (5/95). The methanol content of the mobile phase depended upon the particular separation and the source of the material e.g. Examples 7 and 8 or Example 9. A short precolumn (packed with Bondapak C18 /Corasil) was used to guard the main column. UV-absorbing material was detected at 220 nm at a sensitivity of 0.02 AUFS.

[2] = system: cyclase, epimerase and ring expansion enzyme from a cell-free extract of S. clavuligerus; assay: as above; format: biochemical
Experimental: as §1, §2, §3, §4, §5

[3] = system: Micrococcus luteus ATCC. 9341; assay: Agar diffusion bioassay of cyclization reaction mixtures versus M. luteus; format: cell-based; conditions: cyclization reaction mixture, SPCFX, 2h at 20° C., 20 μl
Text: (§6) Antibiotic in reaction mixtures was estimated by the agar diffusion method. Cyclization reaction mixtures were bioassayed using Micrococcus luteus ATCC. 9341 and Escherichia coli Ess as indicator organisms. Ring expansion reaction mixtures were bioassayed using E. coli Ess as indicator organism in agar plates supplemented with penicillinase at 2×10^5 units/ml
(§7) The procedure of Example 7 was repeated with ACV analogs in which valine was replaced by alpha-aminobutyric acid (R1 =R2 =H) and allo-isoleucine (R1 =H, R2 =C2 H5), as follows: (AC-aminobutyrate)2 (ACAB)2 and (AC-alloisoleucine)2 (ACI)2 were dissolved in water, neutralized, and lyophilized in 0.1 and 1.0 mg amounts. These peptides were then used as substrates in cyclization and ring expansion assays as follows: One hundred micrograms of (ACV)2 from Example 6 was used as substrate in a cyclization and a ring expansion assay system using 0.1 ml of salt-precipitated cell-free extract as enzyme source in each case. (Final concentration of (ACV)2 is 0.306 mM). Identical cyclization and ring expansion assays were set up in which 100 μg (ACAB)2 or 1.0 mg (ACI)2 replaced the (ACV)2 as substrate and 0.3 ml of salt precipitated cell-free extract was used as enzyme source. No substrate controls were also prepared. The reaction mixtures were incubated for 2h at 20° C. At the end of incubation 20 μl amounts of the cyclization reaction mixtures were bioassayed versus M. luteus and E. coli Ess; 20 μl amounts of the ring expansion reaction mixtures were bioassayed versus E. coli Ess plus and minus penicillinase.

[4] = system: E. coli Ess + penicillinase; assay: Agar diffusion bioassay of ring expansion reaction mixtures, plates with penicillinase; format: cell-based, Escherichia coli; conditions: for Zone of Inhibition, E. coli Ess + penicillinase: SPCFX, 2h at 20° C., 20 μl; for Cephalosporin C "equivalents" / Zone of Inhibition: immobilized enzyme reactor reaction mixture
Experimental: (§8) 2 ml of the reaction mixture was applied to the immobilized enzyme reactor by means of a peristaltic pump operating at 40 ml/h. Effluent was collected into a 13×100 mm test tube from which the original reaction mixture was pumped, and therefore was recycled continuously through the enzyme reactor. The enzyme reactor was operated at 21° C. and 20 μl aliquots were removed at 15 minute time intervals for analysis for antibiotic formation. (Table I).
as §6, §7

Escherichia coli Ess = assay: Agar diffusion bioassay of reaction mixtures versus E. coli Ess; format: cell-based; conditions: for Zone of Inhibition, E. coli Ess: SPCFX, 2h at 20° C., 20 μl
Text: as §6, §7

[5] = target: T2, immobilized SPCFX (cyclase, epimerase, ring expansion enzyme) on DEAE Trisacryl (Streptomyces clavuligerus, UniProt P10621); assay: Conversion of ACV on immobilized SPCFX column (immobilized enzyme reactor), HPLC; format: biochemical; conditions: 1 mg ACV, cycled 1.5 hours at 40 ml per hour through 2 ml immobilized SPCFX
T2 construct: Cell-free extracts were prepared by washing 40-48 h cells of S. clavuligerus; endogenous in cells
T2 sequence (P10621 1-329): T1 sequence (P10621 1-329)
Experimental: DEAE-Trisacryl® resin was loaded into a column 0.4×5.8 cm (packed bed volume, 1 ml), washed with 3×2 ml of the same EDTA buffer, and allowed to drain to dryness by gravity. One milliliter of the salt-precipitated cell-free extract above was applied to the column. The effluent was collected and reapplied to the column twice to ensure complete enzyme loading. The column was washed with 2×1 ml of the same EDTA buffer, drained dry and centrifuged for 3 min. at 500×g to remove excess buffer. This immobilized enzyme reactor was stored at 4° C. when not in use.
as §8
Methanol inactivated reaction mixtures (from Examples 7 and 8) were centrifuged at 12,000×g for 5 min to remove precipitated protein before analysis. Reaction mixtures from Example 9 were examined directly. […] UV-absorbing material was detected at 220 nm at a sensitivity of 0.02 AUFS. […]

[6] = ring expansion reaction mixture
[7] = mixture of the three enzymes, approx. 2 hours at 20° C., without alpha-ketoglutarate

## CC(=O)N[C@@H](CCCC(=O)N[C@@H](CS)C(=O)N[C@@H](C(=O)O)C(C)C)C(=O)O
[1]; procedures of Example 7
  cyclization of the peptide: Cyclization was observed
[2]; via an initial deacylation to ACV
  conversion product with SPCFX: penicillin N and isopenicillin N

## CC[C@@H](NC(=O)[C@H](CSSC[C@H](NC(=O)CCC[C@H](N)C(=O)O)C(=O)N[C@H](CC)C(=O)O)NC(=O)CCC[C@H](N)C(=O)O)C(=O)O [(ACAB)2]
[3]
  Zone of Inhibition, M. luteus: 8.0 mm
[4]; [6]
  formation of penicillinase-insensitive antibiotic: do not form penicillinase-insensitive antibiotic
  Zone of Inhibition, E. coli Ess + penicillinase: 0 mm
Escherichia coli Ess; cyclization reaction mixture
  antibiotic activity equivalent to a solution of cephalosporin C against E. coli Ess: 0.9 µg/mL
  Zone of Inhibition, E. coli Ess: 12.5 mm
Escherichia coli Ess; [6]
  formation of antibiotic affecting E. coli Ess: nor do they form any antibiotic affecting E. coli Ess
  Zone of Inhibition, E. coli Ess: 8.0 mm

## CC[C@H](C)[C@@H](NC(=O)[C@H](CSSC[C@H](NC(=O)CCC[C@H](N)C(=O)O)C(=O)N[C@@H](C(=O)O)[C@@H](C)CC)NC(=O)CCC[C@H](N)C(=O)O)C(=O)O [(ACI)2]
[3]
  Zone of Inhibition, M. luteus: 13.0 mm
[4]; [6]
  antibiotic activity equivalent to a solution of cephalosporin C, E. coli Ess + penicillinase plates: 0.9 µg/mL
  Zone of Inhibition, E. coli Ess + penicillinase: 12.5 mm
Escherichia coli Ess; cyclization reaction mixture
  antibiotic activity equivalent to a solution of cephalosporin C against E. coli Ess: 4.85 µg/mL
  Zone of Inhibition, E. coli Ess: 20.0 mm
Escherichia coli Ess; [6]
  Zone of Inhibition, E. coli Ess: 20.0 mm

## CC(C)[C@@H](NC(=O)[C@H](CSSC[C@H](NC(=O)CCC[C@H](N)C(=O)O)C(=O)N[C@@H](C(=O)O)C(C)C)NC(=O)CCC[C@H](N)C(=O)O)C(=O)O [(ACV)2, bis-δ-(L-α-amino-adipyl-L-cysteinyl-D-valine)]
[3]
  Zone of Inhibition, M. luteus: 29.0 mm
[4]; sample time 0 min
  Cephalosporin C "equivalents": 0
[4]; sample time 0 min, 20 μl aliquot
  Zone of Inhibition: 0 mm
[4]; sample time 15 min
  Cephalosporin C "equivalents": .031 μm
  Zone of Inhibition: 15 mm
[4]; sample time 30 min
  Cephalosporin C "equivalents": .086 μm
  Zone of Inhibition: 19.5 mm
[4]; sample time 45 min
  Cephalosporin C "equivalents": .062 μm
  Zone of Inhibition: 18.5 mm
[4]; sample time 60 min
  Cephalosporin C "equivalents": .136 μm
  Zone of Inhibition: 21.5 mm
[4]; sample time 75 min
  Cephalosporin C "equivalents": .136 μm
  Zone of Inhibition: 21.5 mm
[4]; [6]
  antibiotic activity equivalent to a solution of cephalosporin C, E. coli Ess + penicillinase plates: 7.6 µg/mL
  Zone of Inhibition, E. coli Ess + penicillinase: 22 mm and 22.0 mm
Escherichia coli Ess; cyclization reaction mixture
  antibiotic activity equivalent to a solution of cephalosporin C against E. coli Ess: 29.3 µg/mL
  Zone of Inhibition, E. coli Ess: 28.0 mm
Escherichia coli Ess; [6]
  Zone of Inhibition, E. coli Ess: 28.5 mm

## CC(C)[C@@H](NC(=O)[C@H](CS)NC(=O)CCC[C@H](N)C(=O)O)C(=O)O [ACV, L-aminoadipyl-L-cysteinyl-D-valine]
[1]; [7]
  conversion product by bioassay and HPLC: converted to a mixture of isopenicillin N and penicillin N
[2]; [7]
  ring expansion to a cephalosporin: did not occur
[2]; mixture of the three enzymes, with 1 mM alpha-ketoglutarate
  conversion product: converted to desacetoxycephalosporin C
[5]
  conversion of ACV into a mixture of isopenicillin N, penicillin N, desacetoxycephalosporin C and desacetylcephalosporin C, by HPLC: approximately 90%

## CC(C)[C@@H](NC(=O)[C@H](CS)NC(=O)CCCCC(=O)O)C(=O)O [adipyl-containing peptide]
[1]; procedures of Example 7
  cyclization of the peptide: Cyclization was observed
  cyclization to the corresponding penicillin, carboxybutylpenicillin: ~20%
